The target of experiment [1] is T1, Coprinopsis cinerea galectin CGL2, wild type (Genbank AAF34732) (Coprinopsis cinerea, UniProt Q9P4R8).
T1 construct: amplifying the respective open reading frame from cDNA or available plasmids; made in house; host or cells: Escherichia coli BL21(DE3), vector pET24a
Briefly: Isothermal Titration Microcalorimetry (ITC), in vitro binding of C. cinerea galectin CGL2 to synthetic trisaccharide. The conditions noted are these: 25° C. As to the method: The raw data is shown in the upper panel.
Bacterial cell pellets were resuspended in ice-cold phosphate-buffered saline (PBS) [30 mM Na-phosphate pH 7.3, 150 mM NaCl] containing 1 mM phenylmethylsulfonyl fluoride and ruptured using a French press. Cell debris was removed in two consecutive steps of centrifugation at 12000 g for 15 min and 27000 g for 30 min. The supernatant was incubated with lactosyl-sepharose at 4° C. for 1 h and CGL2 was finally eluted at room temperature in PBS containing 200 mM lactose. After size exclusion chromatography on Superose 6 10/300 GL (GE Healthcare) equilibrated in PBS, fractions containing the protein were pooled and concentrated using an Amicon Ultra-4 centrifugal filter device (Millipore) with a molecular weight cutoff of 10 kDa. Protein concentration was calculated by measuring the absorbance at 280 nm, assuming a relation of 1.25 mg mk^−1 to 1 unit absorbance at 280 nm for a path length of 1 cm. Conjugation of purified CGL2 to tetramethylrhodamine (TAMRA) (Molecular Probes) was performed as described in Walser, P. J. et al. (2005) Fungal Genet Biol 42, 293-305.
Experiments were performed with a VP-ITC isothermal titration calorimeter (Microcal, Mass., USA) at 25° C. using purified CGL2 (300 μM in TBS). Gal-β-1,4-Fuc-α-1,6-GlcNAc-β-O—C5H10-NH2 was dissolved in TBS at a concentration of 1.6 mM corrected based on purity estimate by ^1H-NMR (ca. 50-60%). The ligand was titrated into a cell containing the protein solution in 48 injections of 6 μl preceded by a single injection of 2 μl. All injections were performed at intervals of 3 min while stirring at 270 rpm. Experimental data were fitted to a theoretical titration curve using the MCS—ORIGIN software supplied by Microcal.

Experiment [2] deals with C. elegans. Description: C. elegans toxicity plate assay (development L1 to L4 on lectin-expressing E. coli). It counts as in vivo, Caenorhabditis elegans. The conditions noted are these: lectin-expressing E. coli cells as food source. As to the method: (§1) FIG. 1 is a bar chart showing the toxicity of various fungal lectins towards C. elegans. C. elegans wildtype (N2) and pmk-1 mutant worms were analysed for development from L1 to L4 on lectin-expressing bacteria as described in the Experimental Procedures. The y-coordinate is the fraction of worms reaching L4 in the presence of bacteria expressing the lectins on the X-coordinate. Fungal lectins analyzed included C. cinerea galectins CGL1 (Genbank AAF34731) and CGL2 (Genbank AAF34732), galectin-related lectin CGL3 (Genbank ABD64675) and lectin RedA (CCL2) (Genbank ACD88750), Xerocomus chrysenteron lectin XCL (Genbank AAL73235) and its ortholog TAP1 from Sordaria macrospora (Genbank CAH03681), Aleuria aurantia lectin AAL (Genbank BAA00451) and Marasmius oreades agglutinin MOA (Genbank AAL47680).
Plasmids for bacterial expression of fungal lectins were constructed by amplifying the respective open reading frame from cDNA or available plasmids and ligating the resulting fragment into pET24a (Invitrogen) using introduced restriction sites. […]
Quantitative data on the effect of CGL2 on C. elegans development was acquired by placing 50 to 100 newly hatched L1 larvae of the indicated genotypes on the plates. After 72 h, the fraction of animals that reached L4 stage was determined.

Experiment [3] concerns H. contortus. Description: Haemonchus contortus toxicity assay (development L1 to L3, liquid, 96-well). The experiment is classed as in vivo. Particulars: bacterivorous stages fed lectin-expressing E. coli. As for the experimental part: as §1, with “FIG. 12” for “FIG. 1”, “towards H. contortus. The nematodes” for “towards C. elegans. C. elegans wildtype (N2) and pmk-1 mutant worms”, “to L3” for “to L4”, “reaching L3” for “reaching L4”, “cinerea galectin” for “cinerea galectins CGL1 (Genbank AAF34731) and”, “(Genbank ABD64675),” for “(Genbank ABD64675) and”
The toxicity towards the above-mentioned parasitic nematode was evaluated in a liquid assay using 96-well cell culture plates. H. contortus eggs were isolated from feces of an infected sheep and hatched on water-agar plates containing Kanamycin (50 μg/ml) and Amphotericin B (2.5 μg/ml). Approximately 30 L1 larvae were collected and transferred to each well, in a total volume of 150 μl 0.1× Earls solution. […] Plates were incubated at 28° C. in the dark, and percentage of larvae that developed to L3 were determined after 7 days.

Experiment [4] concerns C. elegans glycosylation mutants. Briefly: Lectin sensitivity of C. elegans glycosylation mutants (development L1 to L4). It counts as in vivo, Caenorhabditis elegans. Particulars: testing of C. elegans glycosylation mutants, forward genetic screen. As to the method: FIG. 4 is a graph showing the CGL2-sensitivity of various C. elegans glycosylation mutants. C. elegans mutants of the genotypes indicated in the X-coordinate were analysed for development from L1 to L4 on CGL2-expressing E. coli as described in the experimental procedures below. See Table 1 below for glycosylation processes encoded by the various C. elegans genes.
FIG. 8 is a bar graph illustrating the RedA(CCL2)-sensitivity of various C. elegans glycosylation mutants. C. elegans mutants of the indicated genotypes were analysed for development from L1 to L4 on RedA-expressing E. coli as described in the below experimental procedures. Mutants not analyzed yet are indicated as n.d. See Table 1 below for glycosylation processes encoded by the various C. elegans genes.
FIG. 9 is a bar graph illustrating the MOA-sensitivity test of various C. elegans glycosylation mutants. C. elegans mutants of the indicated genotypes were analysed for development from L1 to L4 on MOA-expressing E. coli as described in experimental procedures below. Mutants not analyzed yet are indicated as n.d. […]
FIG. 10 is a bar graph illustrating the AAL-sensitivity of various C. elegans glycosylation mutants. C. elegans mutants of the indicated genotypes were analysed for development from L1 to L4 on AAL-expressing E. coli as described in Experimental Procedures. […]

Setting [5] is: TBS, model of one ligand-binding site per protein monomer.

“Also recorded” adds a separate entry of the source.

In general, Kd refers to the constant that tells how readily two partners part at equilibrium.

T1 sequence (Q9P4R8 whole entry): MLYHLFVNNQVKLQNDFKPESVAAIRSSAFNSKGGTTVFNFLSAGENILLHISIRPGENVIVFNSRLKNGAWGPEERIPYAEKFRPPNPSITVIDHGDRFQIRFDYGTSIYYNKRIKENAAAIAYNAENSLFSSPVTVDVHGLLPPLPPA

As for `CC(=O)N[C@H]1[C@H](OCCCCCN)O[C@H](CO[C@@H]2O[C@@H](C)[C@@H](O[C@@H]3O[C@H](CO)[C@H](O)[C@H](O)[C@H]3O)[C@@H](O)[C@@H]2O)[C@@H](O)[C@@H]1O` [Gal-β-1,4-Fuc-α-1,6-GlcNAc-β-O—C5H10—NH2], the “entropy of binding (TΔS)” value in experiment [1] (TBS) is -3.31 kcal/mol. In experiment [1] (setting [5]), the “enthalpy change (ΔH)” value is -8.85 ± 0.1 kcal/mol and the “number of binding sites (N)” value stood at 0.977±0.004. Moreover, the Kd in experiment [1] (purified CGL2 300 μM in TBS, ligand 1.6 mM, one ligand-binding site per protein monomer, read-out: dissociation constant (Kd)) stood at 86.9 µM.

B1: AAL: β-propeller lectin from the ascomycete Aleuria aurantia (Genbank BAA00451) (protein, UniProt P18891 2-313, looked up)
Fucose-specific lectin: PTEFLYTSKIAAISWAATGGRQQRVYFQDLNGKIREAQRGGDNPWTGGSSQNVIGEAKLFSPLAAVTWKSAQGIQIRVYCVNKDNILSEFVYDGSKWITGQLGSVGVKVGSNSKLAALQWGGSESAPPNIRVYYQKSNGSGSSIHEYVWSGKWTAGASFGSTVPGTGIGATAIGPGRLRIYYQATDNKIREHCWDSNSWYVGGFSASASAGVSIAAISWGSTPNIRVYWQKGREELYEAAYGGSWNTPGQIKDASRPTPSLPDTFIAANSSGNIDISVFFQASGVSLQQWQWISGKGWSIGAVVPTGTPAGW
Consider B1, for which the “toxicity towards C. elegans” value in experiment [2] is listed as “toxic”. The “toxicity towards H. contortus” value in experiment [3] is on record as “toxic”. The “glycan that mediates nematotoxicity / is recognized in C. elegans” value in experiment [4] was “binds terminal Fuc on a yet to be identified nematode glycoconjugate; also recorded: dependent on GDP-fucose biosynthesis”.

The values are drawn from patent publication US20120207737A1, “MEDICAL UTILITY OF GLYCAN-BINDING PROTEINS AND GLYCANS” (UNIVERSITY OF ZURICH, priority 2009, published 2012).
